In publication PMC10568017, “A quest for the stereo-electronic requirements for selective agonism for the neurotrophin receptors TrkA and TrkB in 17-spirocyclic-dehydroepiandrosterone derivatives” (Frontiers in Molecular Neuroscience, 2023):

B1: brain-derived neurotrophic factor (protein, UniProt P23560 19-247, looked up)
Neurotrophic factor BDNF …: APMKEANIRGQGGLAYPGVRTHGTLESVNGPKAGSRGLTSLADTFEHVIEELLDEDQKVRPNEENNKDADLYTSRVMLSSQVPLEPPLLFLLEEYKNYLDAANMSMRVRRHSDPARRGELSVCDSISEWVTAADKKTAVDMSGGTVTVLEKVPVSKGQLKQYFYETKCNPMGYTKEGCRGIDKRHWNSQCRTTQSYVRALTMDSKKRIGWRFIRIDTSCVCTLTIKRGR
notes: native neurotrophin ligand of the TrkB receptor, positive control at 500 ng/mL

How the values were obtained:
[1] = test system: NIH-3T3 TrkB-expressing cell line; assay: CellTox Green cytotoxicity assay in NIH-3T3 cells stable transfected with TrkB under serum deprivation; type: cell-based; settings: compound 1 μM, 24 h, after 24 h serum starvation; BDNF 500 ng/mL as control
Protocol: (§1) We tested compounds on three cellular systems, primary cortical astrocytes from 2-day-old mice (as a natively TrkB-expressing neuronal population), and NIH-3T3 fibroblasts stable transfected with TrkB and NIH-3T3 naïve cells. Cells were grown with high-glucose DMEM medium supplemented with 10% fetal bovine serum (FBS), 100 μg/mL streptomycin, and 100 units/mL penicillin at 37°C in a humidified 5% CO2 atmosphere. Phosphorylation results presented here are in primary astrocytes, and cell toxicity assay results are in NIH-3T3 stable transfected cells with TrkB.
NIH-3T3 stable transfected cells with TrkB were plated in 96-well plates at a density of 10,000 cells/well, before carrying out serum starvation for 24 h. Cells were then treated for 24 h with either BDNF at 500 ng/mL (control) or the compounds at 1 μM.
(§2) For the cell toxicity assay, we used CellTox™ Green Dye (2,000 × , Promega) for the visualization of dead cells and Hoechst 33,342 solution (10,000 × ) for total cells. A ZEISS Axio Vert.A1 microscope was used for image capture, and the ImageJ software (https://imagej.nih.gov/ij/) was used for analysis. The number of CellTox positive cells was normalized against the total number of cells observed in each image.
The NIH-3T3 TrkB cell line, which is stable and transfected to specifically express the TrkB receptor, was used for the screening of the new compounds for their ability to protect cells from serum deprivation-induced apoptosis through the activation of the TrkB receptor. Cell death was induced by serum deprivation for 24 h and then BDNF (500 ng/mL), the native neurotrophin ligand of the TrkB receptor, or compounds ENT-A007, ENT-A009, ENTA025, ENT-A026, ENT-A033, ENT-A034, ENT-A035, ENT-A036, ENT-A037, ENT-A046, ENT-A047, ENT-A055, and ENT-A056 (1 μM) were added to the media for 24 h.

[2] = molecular target: T1, TrkB (Mus musculus, UniProt P15209); assay: TrkB phosphorylation assay in primary astrocytes (Western blot); type: cell-based; settings: compound 1 μM, 20 min, after 6 h serum starvation, BDNF 500 ng/mL as control
T1 construct: primary cortical astrocytes from 2-day-old mice (as a natively TrkB-expressing neuronal population); endogenous in cells; host or cells: primary cortical astrocytes from C57B/6 mouse pups (P2)
T1 sequence (P15209 32-821): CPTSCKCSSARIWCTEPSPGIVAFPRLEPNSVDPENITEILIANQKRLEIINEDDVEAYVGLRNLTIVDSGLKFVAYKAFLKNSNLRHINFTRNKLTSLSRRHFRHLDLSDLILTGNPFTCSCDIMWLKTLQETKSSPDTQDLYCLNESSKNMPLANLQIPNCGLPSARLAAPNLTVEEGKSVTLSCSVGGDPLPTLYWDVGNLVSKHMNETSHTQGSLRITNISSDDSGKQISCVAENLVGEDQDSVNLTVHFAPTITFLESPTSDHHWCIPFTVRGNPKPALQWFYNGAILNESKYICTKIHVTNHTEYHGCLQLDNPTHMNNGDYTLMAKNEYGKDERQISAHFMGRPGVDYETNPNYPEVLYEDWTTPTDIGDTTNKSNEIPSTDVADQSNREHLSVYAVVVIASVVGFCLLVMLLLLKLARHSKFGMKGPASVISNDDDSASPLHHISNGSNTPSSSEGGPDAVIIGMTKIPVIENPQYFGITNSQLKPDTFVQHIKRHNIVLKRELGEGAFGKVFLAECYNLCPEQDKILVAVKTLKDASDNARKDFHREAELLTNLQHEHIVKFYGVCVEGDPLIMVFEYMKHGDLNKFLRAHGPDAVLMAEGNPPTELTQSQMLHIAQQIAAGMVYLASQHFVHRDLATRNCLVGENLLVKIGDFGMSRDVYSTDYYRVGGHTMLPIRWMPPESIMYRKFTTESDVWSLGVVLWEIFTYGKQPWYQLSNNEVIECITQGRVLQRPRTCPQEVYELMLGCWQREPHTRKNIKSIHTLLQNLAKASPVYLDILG
Protocol: as §1
Cells were plated in 12 well plates, at a density of 100,000 cells per well, with 6 h of serum deprivation carried out on the following day. To assess the effect of compounds on TrkB phosphorylation, 20-min treatments were applied, using either BDNF at 500 ng/mL (Peprotech 450-02) (positive control) or compounds at 1 μM.
Cell lysis for 10 min was carried out on ice using the Pierce IP Lysis Buffer by Thermo Scientific and a phospho-protease inhibitor cocktail by Millipore. After adding loading buffer (5 × Laemni), 25 μg from each protein sample were incubated for 5 min at 95°C and subjected to SDS-PAGE. Proteins were transferred to a nitrocellulose membrane at 350 mA for 2 h. Membrane blocking was performed using 5% bovine serum albumin (BSA) at room temperature for 1 h, before adding the primary antibodies to the blocking solution at 4°C overnight. HRP-conjugated secondary antibodies were used for the detection of chemiluminescence with ECL solution. Primary antibodies: Phospho-TrkB (Tyr816) Millipore # ABN1381, and Anti-TrkB Abcam #ab33655.
Mixed glial cultures were isolated from the cortex of C57B/6 pups at post-natal day 2 (P2). Cells were plated in a medium containing high-glucose DMEM, 200 U/mL penicillin, 200 μg/mL streptomycin, and 10% fetal bovine serum (FBS). When cells reach 100% confluency (7–8 days), the anti-mitotic agent Ara-C was added in the media at a final concentration of 10 μM, for 3 to 4 days to target the highly proliferative microglial cells. Ara-C was removed, and primary astrocytes (97% purity) were cultured at 5% CO2 and 37°C.
Cells were plated at 70–80% confluency. The next day, they were deprived of serum for 6 h and subsequently treated with 500 ng/mL BDNF or 1 μM of compounds for 20 min. Cells were then lysed in Pierce™ IP Lysis Buffer (87788, Thermo Fischer Scientific, Rockford, USA), containing proteases (539138, Calbiochem, Darmstadt, Germany), and phosphatase inhibitors (524629, Calbiochem, Darmstadt, Germany). Lysates were then suspended in an SDS loading buffer and subjected to Western blot against phosphorylated TrkB (1:1,000, ABN1381, Sigma-Aldrich, St. Louis, MO, USA) and total TrkB (1:1,000, 07-225-I, Sigma-Aldrich, St. Louis, MO, USA).

[3] = test system: PC12 cells; assay: CellTox assay, survival of PC12 cells under serum deprivation; type: cell-based; settings: compound 500 nM, 24 h, after 4 h serum starvation; NGF 100 ng/mL as control (Figure 9)
Protocol: PC12 cells were obtained from LGC Promochem and cultured under specified conditions. Cells were grown in DMEM medium (Thermo Fischer Scientific, cat# 10566016) containing 10% horse serum (Thermo Fischer Scientific, cat# 16050122), 5% fetal bovine serum (Thermo Fischer Scientific, cat# 10270106), 100 units/mL penicillin, and 0.1 mg/mL streptomycin (Thermo Fischer Scientific, cat# 15140122) at 5% CO2 and 37°C. Cells were used between passages 5 and 20.
CellTox assay (G8742, Promega, Leiden, Belgium) was used to assess the survival of PC12 cells under serum deprivation conditions. PC12 cells were plated in 96-well plates, starved from serum for 4 h, and subsequently treated with NGF (100 ng/mL) or compound (500 nM) for 24 h. CellTox assay reagents and Hoescht (1:10,000, H3570, Invitrogen, Massachusetts, USA) were then added to each well for 30 min, and then, cells were imaged with a Zeiss AXIO Vert A1 fluorescent microscope. CellTox positive cells were normalized to the total number of cells for each image.
Initially, we tested compounds ENT-A002, ENT-A007, ENT-A009, ENTA025, ENT-A026, ENT-A033, ENT-A034, ENT-A035, ENT-A036, ENT-A037, ENT-A046, ENT-A047, ENT-A055, and ENT-A056 for their ability to protect PC12 cells from serum deprivation-induced cell death as well as for their ability to activate TrkA downstream pro-survival signaling kinases Akt and Erk1/2 (Figures 9A–C). We opted to employ PC12 cells, which express receptors TrkA and p75 and have been routinely used for investigating NGF-TrkA signaling. PC12 cells were subjected to a period of nutrient deprivation (without fetal bovine serum and horse serum in their culture medium) for 4 h. Following this, NGF (100 ng/mL) or one of the compounds (500 nM or 1 μM) was administered and allowed to interact with the cells for 24 h. Following that, CellTox and Hoescht dyes were added and cells were imaged to assess cell death. Control cases involved cells cultured in full medium (serum), cells under starvation conditions (serum-free), and cells under starvation conditions treated with DMSO (SF+DMSO).

[4] = molecular target: T2, CYP2C9 (Homo sapiens, UniProt P11712); assay: Isozyme-specific CYP450 inhibition, CYP2C9; type: in vitro ADME; settings: 1 μM, 60 min, recombinant human CYP450 (Baculosomes)
T2 construct: purchased Thermo Fisher Scientific; host or cells: Baculosomes
T2 sequence (P11712 whole entry): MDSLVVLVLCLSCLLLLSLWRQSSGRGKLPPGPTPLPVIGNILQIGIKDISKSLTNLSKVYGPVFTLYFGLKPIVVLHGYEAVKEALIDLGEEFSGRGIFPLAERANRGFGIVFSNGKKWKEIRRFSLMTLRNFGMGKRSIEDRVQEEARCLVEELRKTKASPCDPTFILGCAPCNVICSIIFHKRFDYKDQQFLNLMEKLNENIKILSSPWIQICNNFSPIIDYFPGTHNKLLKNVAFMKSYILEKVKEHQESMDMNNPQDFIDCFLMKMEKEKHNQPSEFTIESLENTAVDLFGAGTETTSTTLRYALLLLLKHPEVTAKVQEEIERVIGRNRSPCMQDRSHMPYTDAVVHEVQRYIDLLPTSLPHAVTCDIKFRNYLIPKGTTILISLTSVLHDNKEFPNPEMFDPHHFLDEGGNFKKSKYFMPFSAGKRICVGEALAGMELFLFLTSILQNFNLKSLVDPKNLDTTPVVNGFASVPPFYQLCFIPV
Protocol: Human cytochrome P450 (CYP450) isoenzymes were expressed in Baculosomes®, purchased from Thermo Fisher Scientific (Waltham, MA, USA). All reagents were handled and prepared according to the manufacturer's protocol. Test compounds were assessed at 1 μM for their effects on CYP1A2, CYP2A6, CYP2C9, CYP2C19, CYP2D6, and CYP3A4. Approximately 1 μM was selected based on our ADMET standard operating procedures and protocols also published previously (Rogdakis et al., [2022]; Yilmaz et al., [2022]). CYP450-enzymatic activity was determined based on the kinetic model for each CYP450 isoform (Cohen et al., [2003]; Veith et al., [2009]). Reactions took place in triplicates at 20°C. For this, NADP^+ (10 mM in 100 mM potassium phosphate, pH 8.0) was converted into NADPH by the regeneration system present (glucose-6-phosphate at 333 mM and glucose-6-phosphate-dehydrogenase at 30 U/mL in 100 mM potassium phosphate, pH 8.0). Following the addition of the fluorescent substrate, signal monitoring over time took place immediately (<2 min) at suitable excitation and emission wavelengths (Agilent BioTek Lionheart FX). CYP450 inhibition (%) was determined based on the reaction rates (fluorescence intensity changes per unit time). In total, n = 60 measurements […] were acquired (t = 60 min).
% Inhibition=(1-X/A)×100%
X is the rate observed in the presence of the test compound.
A is the rate observed in the presence of the negative (solvent, DMSO) control.

[5] = test system: NIH3T3 naive cells; assay: CellTox assay in NIH3T3 naive cells under serum deprivation; type: cell-based; settings: compound 1 μM or BDNF 500 ng/mL, 24 h, after 18 h nutrient deprivation
Protocol: as §1, §2
These cells were treated with the compounds, or BDNF, for 24 h under starvation conditions. Control conditions included cells cultured with serum, serum-free conditions, and serum-free conditions supplemented with DMSO. The cells were subjected to a period of 18 h of nutrient deprivation before the treatments. […] Therefore, we infer that the involvement of the TrkB receptor is indeed essential for the cell-protective effects of ENT-A076, ENT-A087, and ENT-A088 (Figures 14A, B).

[6] = Metabolic stability in pooled human liver microsomes; type: in vitro ADME; settings: 1 μM; for residual of time zero: pooled human liver microsomes 0.5 mg/mL, t = 60 min, NADPH; for parent structure loss (depletion) class: pooled human liver microsomes, 60 min
Protocol: For metabolic stability assessment, pooled human liver microsomes were employed at 0.5 mg/mL. Incubation conditions were optimized to ensure linear metabolite formation with respect to protein concentration and reaction time. All test compounds were assessed at 1 μM based on our ADMET standard operating procedures and protocols, also published previously (1 μM was selected based on our ADMET standard operating procedures and protocols also published previously) (Rogdakis et al., [2022]; Yilmaz et al., [2022]). Approximately 1 mM of NADPH served as a cofactor. Reactions took place in triplicates at 37°C. Negative and positive controls (low vs. rapid clearance) were included for low vs. rapid clearance. After 60 min, reactions were terminated.
Parent structure loss is classified as very slow (<5%), slow (5–19%), moderate (20–50%), fast (50–80%), or very fast (>80%). Such categories have been defined according to set criteria, namely, high metabolism (t1/2 value of <30 min), moderate metabolism (30 min <t1/2 value of <60 min), and low metabolism (t1/2 value of >60 min) (EMA, [2012], [2013]; FDA, [2020]).

Molecule	protection of NIH-3T3-TrkB cells from serum deprivation-induced cell death (CellTox) [1]	phosphorylation levels of the TrkB receptor [2]	protection of PC12 cells from serum deprivation-induced cell death (CellTox) [3]	inhibition for CYP2C9 [4]	rescue of NIH3T3 naive cells (no neurotrophin receptors) from serum deprivation-induced cell death (CellTox) [5]	residual of time zero [6] [%]	parent structure loss (depletion) class [6]
CN(C)Cc1cn(CC2=CC[C@@]3(CC[C@H]4[C@@H]5CC=C6C[C@@H](O)CC[C@]6(C)[C@H]5CC[C@@]43C)OC2)nn1 [ENT-A046, (3S,17R)-5′-[(4-((dimethylamino)methyl)-1H-1,2,3-triazol-1-yl)methyl]-3′,6′-dihydrospiro[5-androstene-17,2′-pyran]-3-ol]	significantly reduce cell death levels compared to the serum-free control, comparable to the BDNF action	only ENT-A009 and ENT-A055 successfully increased phosphorylation levels of the TrkB receptor	without showing any antiapoptotic activity in PC12 cells	–	–	–	–
CCOC(=O)C=CC1=CCC2(CCC3C4CC=C5CC(O)CCC5(C)C4CCC32C)OC1 [ENT-A007, Ethyl (E)-(3S,17R)-3-hydroxy-dihydrospiro[5-androstene-17,2′-pyran]-5′-yl-acrylate]	significantly reduce cell death levels compared to the serum-free control, comparable to the BDNF action	only ENT-A009 and ENT-A055 successfully increased phosphorylation levels of the TrkB receptor	–	moderate-to-strong inhibition	–	–	–
COC(=O)C=C1CC2(CC[C@H]3[C@@H]4CC=C5C[C@@H](O)CC[C@]5(C)[C@H]4CC[C@@]32C)C1 (stereo partly drawn) [ENT-A087]	demonstrated the ability to promote cell survival during serum starvation as well as BDNF	–	–	–	neither the compounds nor BDNF were able to rescue the cells from cell death	> 95	very slow (very slow (<5%))
C[C@]12CC[C@H](O)CC1=CC[C@@H]1[C@@H]2CC[C@@]2(C)[C@H]1CCC21CC(=O)C1 [ENT-A076, (3S)-3-hydroxy-spiro[5-androsten-17-cyclobutan]-3′-one]	demonstrated the ability to promote cell survival during serum starvation as well as BDNF	–	–	–	neither the compounds nor BDNF were able to rescue the cells from cell death	95	slow (slow (5–19%))
B1	–	–	–	–	neither the compounds nor BDNF were able to rescue the cells from cell death	–	–
